Key:
[1] = test system: Epidermal growth factor receptor (Homo sapiens), P00533 [L858R]; conditions: Compound concentration 1000.0 nM
[2] = target: 5'-AMP-activated protein kinase catalytic subunit alpha-1 (Homo sapiens) (UniProt Q13131); conditions: Compound concentration 1000.0 nM
[3] = target: Serine/threonine-protein kinase 10 (Homo sapiens) (UniProt O94804); conditions: Compound concentration 1000.0 nM
[4] = target: Serine/threonine-protein kinase 38 (Homo sapiens) (UniProt Q15208); conditions: Compound concentration 1000.0 nM
[5] = target: Misshapen-like kinase 1 (Homo sapiens) (UniProt Q8N4C8); conditions: Compound concentration 1000.0 nM
[6] = target: 5-hydroxytryptamine receptor 2B (Homo sapiens) (UniProt P41595); conditions: Compound concentration 10.0 uM
5-hydroxytryptamine receptor 2B (Homo sapiens), sequence (P41595 whole entry): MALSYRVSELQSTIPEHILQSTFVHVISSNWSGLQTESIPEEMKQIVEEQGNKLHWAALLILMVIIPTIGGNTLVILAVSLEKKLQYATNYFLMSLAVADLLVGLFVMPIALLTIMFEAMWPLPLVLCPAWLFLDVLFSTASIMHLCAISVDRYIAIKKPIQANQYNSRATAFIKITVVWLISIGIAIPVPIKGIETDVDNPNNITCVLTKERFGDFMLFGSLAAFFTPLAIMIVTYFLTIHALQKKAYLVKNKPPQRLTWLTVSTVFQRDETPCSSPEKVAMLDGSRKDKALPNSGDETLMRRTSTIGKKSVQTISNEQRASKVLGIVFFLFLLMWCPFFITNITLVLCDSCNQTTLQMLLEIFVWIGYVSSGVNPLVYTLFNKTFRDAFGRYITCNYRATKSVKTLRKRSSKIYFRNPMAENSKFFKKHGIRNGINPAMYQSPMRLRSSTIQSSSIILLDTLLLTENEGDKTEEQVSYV

[7] = test system: ALK tyrosine kinase receptor (Homo sapiens), Q9UM73 [C1156Y]; conditions: Compound concentration 1000.0 nM
[8] = target: 5-hydroxytryptamine receptor 2A (Homo sapiens) (UniProt P28223); conditions: Compound concentration 10.0 uM
[9] = target: GABA-A receptor; anion channel (Rattus norvegicus) (UniProt O09028+P15431+P18506+P18508+P19969+P20236+P23574+P23576+P28471+P28473+P30191+P62813+P63079+P63138+Q91ZM7+Q9ES14); conditions: Compound concentration 10.0 uM
[10] = target: Tyrosine-protein kinase Fyn (Homo sapiens) (UniProt P06241); conditions: Compound concentration 1000.0 nM
[11] = target: Vascular endothelial growth factor receptor 3 (Homo sapiens) (UniProt P35916); conditions: Compound concentration 1000.0 nM
[12] = target: BDNF/NT-3 growth factors receptor (Homo sapiens) (UniProt Q16620); conditions: Compound concentration 1000.0 nM
[13] = target: Cyclin-dependent kinase 2 (Homo sapiens) (UniProt P24941); conditions: Compound concentration 1000.0 nM
[14] = target: Mitogen-activated protein kinase 9 (Homo sapiens) (UniProt P45984); conditions: Compound concentration 1000.0 nM
[15] = target: Ephrin type-B receptor 6 (Homo sapiens) (UniProt O15197); conditions: Compound concentration 1000.0 nM
[16] = target: Ephrin type-A receptor 6 (Homo sapiens) (UniProt Q9UF33); conditions: Compound concentration 1000.0 nM
[17] = target: Macrophage colony-stimulating factor 1 receptor (Homo sapiens) (UniProt P07333); conditions: Compound concentration 1000.0 nM
[18] = test system: Phosphatidylinositol 4,5-bisphosphate 3-kinase catalytic subunit alpha isoform (Homo sapiens), P42336 [M1043I]; conditions: Compound concentration 1000.0 nM
[19] = target: Phosphorylase b kinase regulatory subunit alpha, liver isoform (Homo sapiens) (UniProt P46019); conditions: Compound concentration 1000.0 nM
Phosphorylase b kinase regulatory subunit alpha, liver isoform (Homo sapiens), sequence (P46019 whole entry, canonical isoform): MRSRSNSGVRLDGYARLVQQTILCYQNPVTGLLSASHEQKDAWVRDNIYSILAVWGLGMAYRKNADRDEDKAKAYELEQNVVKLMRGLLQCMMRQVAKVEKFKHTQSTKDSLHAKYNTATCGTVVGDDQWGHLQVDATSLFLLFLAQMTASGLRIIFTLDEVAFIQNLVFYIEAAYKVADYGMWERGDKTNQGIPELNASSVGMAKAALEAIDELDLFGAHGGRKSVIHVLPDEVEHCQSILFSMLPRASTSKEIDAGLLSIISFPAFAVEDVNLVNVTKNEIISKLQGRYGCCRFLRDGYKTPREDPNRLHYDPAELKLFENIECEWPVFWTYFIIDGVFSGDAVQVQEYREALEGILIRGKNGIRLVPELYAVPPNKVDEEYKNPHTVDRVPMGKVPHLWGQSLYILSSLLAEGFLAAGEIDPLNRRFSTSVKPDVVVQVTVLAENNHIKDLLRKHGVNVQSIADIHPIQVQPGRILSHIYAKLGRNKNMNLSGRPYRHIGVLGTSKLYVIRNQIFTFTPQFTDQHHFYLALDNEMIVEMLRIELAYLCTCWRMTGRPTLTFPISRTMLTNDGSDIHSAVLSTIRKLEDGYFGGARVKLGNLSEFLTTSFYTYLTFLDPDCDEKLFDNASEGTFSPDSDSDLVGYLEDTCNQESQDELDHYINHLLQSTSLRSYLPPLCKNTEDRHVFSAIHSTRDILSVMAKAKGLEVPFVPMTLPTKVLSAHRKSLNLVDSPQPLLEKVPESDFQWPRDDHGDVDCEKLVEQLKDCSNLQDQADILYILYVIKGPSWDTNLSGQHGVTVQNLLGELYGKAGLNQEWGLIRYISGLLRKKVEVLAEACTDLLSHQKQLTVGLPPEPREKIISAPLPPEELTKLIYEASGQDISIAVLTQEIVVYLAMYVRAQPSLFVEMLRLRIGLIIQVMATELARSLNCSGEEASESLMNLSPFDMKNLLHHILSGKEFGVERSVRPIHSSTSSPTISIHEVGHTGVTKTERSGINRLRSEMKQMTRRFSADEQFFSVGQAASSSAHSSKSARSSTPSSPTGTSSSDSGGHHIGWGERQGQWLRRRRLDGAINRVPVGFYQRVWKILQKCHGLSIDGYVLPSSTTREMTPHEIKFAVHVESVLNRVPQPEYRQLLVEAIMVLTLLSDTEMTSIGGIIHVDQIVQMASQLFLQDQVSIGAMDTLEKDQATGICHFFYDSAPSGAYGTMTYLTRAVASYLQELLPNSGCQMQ

[20] = test system: Leucine-rich repeat serine/threonine-protein kinase 2 (Homo sapiens), Q5S007 [G2019S]; conditions: Compound concentration 1000.0 nM
[21] = test system: Tyrosine-protein kinase ABL1 (Homo sapiens), P00519 [F317L]; conditions: Compound concentration 1000.0 nM
[22] = target: Serine/threonine-protein kinase pim-2 (Homo sapiens) (UniProt Q9P1W9); conditions: Compound concentration 1000.0 nM
Serine/threonine-protein kinase pim-2 (Homo sapiens), sequence (Q9P1W9 whole entry, looked up): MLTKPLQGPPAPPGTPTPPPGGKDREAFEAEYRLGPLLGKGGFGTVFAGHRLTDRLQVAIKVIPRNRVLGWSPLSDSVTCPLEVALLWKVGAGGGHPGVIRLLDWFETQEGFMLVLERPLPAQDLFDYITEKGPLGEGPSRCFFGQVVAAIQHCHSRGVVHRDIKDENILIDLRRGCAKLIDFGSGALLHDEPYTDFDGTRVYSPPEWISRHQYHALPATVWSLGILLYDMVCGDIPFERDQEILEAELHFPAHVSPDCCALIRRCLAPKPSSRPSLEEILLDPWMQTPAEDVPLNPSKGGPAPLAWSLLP

[23] = target: Cyclin-dependent kinase 5 (Homo sapiens) (UniProt Q00535); conditions: Compound concentration 1000.0 nM
[24] = target: Tyrosine-protein kinase Fer (Homo sapiens) (UniProt P16591); conditions: Compound concentration 1000.0 nM
[25] = target: Ephrin type-A receptor 4 (Homo sapiens) (UniProt P54764); conditions: Compound concentration 1000.0 nM
[26] = target: Cyclin-dependent kinase 16 (Homo sapiens) (UniProt Q00536); conditions: Compound concentration 1000.0 nM
[27] = test system: Epidermal growth factor receptor (Homo sapiens), P00533 [UNDEFINED MUTATION]; conditions: Compound concentration 1000.0 nM
[28] = target: Serine/threonine-protein kinase Chk1 (Homo sapiens) (UniProt O14757); conditions: Compound concentration 1000.0 nM
Serine/threonine-protein kinase Chk1 (Homo sapiens), sequence (O14757 whole entry): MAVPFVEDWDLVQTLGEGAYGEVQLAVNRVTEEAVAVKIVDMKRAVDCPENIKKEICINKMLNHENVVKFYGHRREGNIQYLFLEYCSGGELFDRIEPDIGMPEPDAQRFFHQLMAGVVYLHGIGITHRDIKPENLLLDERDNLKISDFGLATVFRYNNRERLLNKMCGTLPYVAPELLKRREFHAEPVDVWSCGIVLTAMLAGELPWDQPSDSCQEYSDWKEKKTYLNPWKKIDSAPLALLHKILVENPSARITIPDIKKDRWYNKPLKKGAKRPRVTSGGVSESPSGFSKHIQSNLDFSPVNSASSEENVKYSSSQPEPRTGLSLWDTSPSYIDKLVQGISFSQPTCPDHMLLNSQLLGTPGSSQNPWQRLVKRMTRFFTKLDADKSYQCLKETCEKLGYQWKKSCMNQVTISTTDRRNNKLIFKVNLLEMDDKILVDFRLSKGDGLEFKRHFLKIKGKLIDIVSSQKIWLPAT

[29] = target: Tyrosine-protein kinase Lck (Homo sapiens) (UniProt P06239); conditions: Compound concentration 1000.0 nM
[30] = target: Vascular endothelial growth factor receptor 2 (Homo sapiens) (UniProt P35968); conditions: Compound concentration 1000.0 nM
[31] = target: Tyrosine-protein kinase BTK (Homo sapiens) (UniProt Q06187); conditions: Compound concentration 1000.0 nM
Tyrosine-protein kinase BTK (Homo sapiens), sequence (Q06187 whole entry): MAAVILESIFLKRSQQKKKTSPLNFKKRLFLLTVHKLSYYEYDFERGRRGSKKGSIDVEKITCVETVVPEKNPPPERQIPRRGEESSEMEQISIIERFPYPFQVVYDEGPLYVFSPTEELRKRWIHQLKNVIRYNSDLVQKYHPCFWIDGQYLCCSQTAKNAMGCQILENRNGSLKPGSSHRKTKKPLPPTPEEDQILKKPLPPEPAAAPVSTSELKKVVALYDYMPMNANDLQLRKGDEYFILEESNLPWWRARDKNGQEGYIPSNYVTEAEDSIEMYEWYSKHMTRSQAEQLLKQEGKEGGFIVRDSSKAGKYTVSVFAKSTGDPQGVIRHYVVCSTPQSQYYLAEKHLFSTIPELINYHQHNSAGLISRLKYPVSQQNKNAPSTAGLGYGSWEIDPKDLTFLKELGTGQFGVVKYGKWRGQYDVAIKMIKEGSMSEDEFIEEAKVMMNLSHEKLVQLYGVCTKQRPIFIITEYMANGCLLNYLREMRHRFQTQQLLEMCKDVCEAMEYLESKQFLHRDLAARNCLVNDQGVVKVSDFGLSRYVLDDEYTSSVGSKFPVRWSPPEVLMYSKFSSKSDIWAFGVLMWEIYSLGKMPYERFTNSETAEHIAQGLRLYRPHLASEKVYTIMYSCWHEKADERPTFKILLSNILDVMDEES

[32] = test system: Receptor-type tyrosine-protein kinase FLT3 (Homo sapiens), P36888 [D835Y]; conditions: Compound concentration 1000.0 nM
[33] = target: Insulin-like growth factor 1 receptor (Homo sapiens) (UniProt P08069); conditions: Compound concentration 1000.0 nM
[34] = target: Ephrin type-B receptor 1 (Homo sapiens) (UniProt P54762); conditions: Compound concentration 1000.0 nM
[35] = target: Alpha-2C adrenergic receptor (Homo sapiens) (UniProt P18825); conditions: Compound concentration 10.0 uM
Alpha-2C adrenergic receptor (Homo sapiens), sequence (P18825 whole entry): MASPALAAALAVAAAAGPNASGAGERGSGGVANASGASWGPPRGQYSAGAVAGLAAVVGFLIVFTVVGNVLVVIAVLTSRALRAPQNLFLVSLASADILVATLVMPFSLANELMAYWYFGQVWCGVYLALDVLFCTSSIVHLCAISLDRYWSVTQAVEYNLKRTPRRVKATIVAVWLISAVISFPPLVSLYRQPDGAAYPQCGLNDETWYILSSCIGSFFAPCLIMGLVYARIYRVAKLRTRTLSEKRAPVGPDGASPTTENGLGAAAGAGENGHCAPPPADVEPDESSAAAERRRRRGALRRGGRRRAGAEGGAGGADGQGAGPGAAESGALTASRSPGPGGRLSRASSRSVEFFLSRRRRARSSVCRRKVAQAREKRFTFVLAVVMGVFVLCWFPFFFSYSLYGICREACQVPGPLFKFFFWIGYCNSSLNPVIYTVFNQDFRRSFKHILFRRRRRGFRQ

[36] = target: Ephrin type-B receptor 2 (Homo sapiens) (UniProt P29323); conditions: Compound concentration 1000.0 nM
[37] = test system: Phosphatidylinositol 4,5-bisphosphate 3-kinase catalytic subunit alpha isoform (Homo sapiens), P42336 [H1047L]; conditions: Compound concentration 1000.0 nM
[38] = target: Mitogen-activated protein kinase kinase kinase 1 (Homo sapiens) (UniProt Q13233); conditions: Compound concentration 1000.0 nM
[39] = target: cAMP-dependent protein kinase catalytic subunit beta (Homo sapiens) (UniProt P22694); conditions: Compound concentration 1000.0 nM
[40] = target: Ribosomal protein S6 kinase alpha-4 (Homo sapiens) (UniProt O75676); conditions: Compound concentration 1000.0 nM
Ribosomal protein S6 kinase alpha-4 (Homo sapiens), sequence (O75676 whole entry, looked up): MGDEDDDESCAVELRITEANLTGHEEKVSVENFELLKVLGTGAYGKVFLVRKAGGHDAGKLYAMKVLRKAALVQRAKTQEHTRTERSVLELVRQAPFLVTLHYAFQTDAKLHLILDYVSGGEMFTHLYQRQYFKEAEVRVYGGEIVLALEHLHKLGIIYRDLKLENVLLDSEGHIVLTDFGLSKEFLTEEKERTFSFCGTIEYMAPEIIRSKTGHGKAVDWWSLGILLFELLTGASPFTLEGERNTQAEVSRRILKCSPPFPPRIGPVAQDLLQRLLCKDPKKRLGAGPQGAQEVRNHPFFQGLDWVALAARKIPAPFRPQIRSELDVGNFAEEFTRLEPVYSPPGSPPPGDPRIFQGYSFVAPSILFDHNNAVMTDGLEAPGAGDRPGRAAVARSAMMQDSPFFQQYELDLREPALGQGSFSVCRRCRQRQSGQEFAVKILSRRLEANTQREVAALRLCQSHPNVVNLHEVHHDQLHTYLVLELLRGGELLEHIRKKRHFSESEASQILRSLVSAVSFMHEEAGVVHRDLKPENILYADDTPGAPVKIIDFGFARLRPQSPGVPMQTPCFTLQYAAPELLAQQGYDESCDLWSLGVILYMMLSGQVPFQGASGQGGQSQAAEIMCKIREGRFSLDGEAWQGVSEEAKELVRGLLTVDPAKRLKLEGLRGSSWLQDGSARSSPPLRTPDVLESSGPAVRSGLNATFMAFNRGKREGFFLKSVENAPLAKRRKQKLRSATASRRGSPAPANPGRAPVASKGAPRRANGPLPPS

[41] = target: Cyclin-dependent kinase 19 (Homo sapiens) (UniProt Q9BWU1); conditions: Compound concentration 1000.0 nM
[42] = target: Cyclin-dependent kinase-like 2 (Homo sapiens) (UniProt Q92772); conditions: Compound concentration 1000.0 nM
Cyclin-dependent kinase-like 2 (Homo sapiens), sequence (Q92772 whole entry): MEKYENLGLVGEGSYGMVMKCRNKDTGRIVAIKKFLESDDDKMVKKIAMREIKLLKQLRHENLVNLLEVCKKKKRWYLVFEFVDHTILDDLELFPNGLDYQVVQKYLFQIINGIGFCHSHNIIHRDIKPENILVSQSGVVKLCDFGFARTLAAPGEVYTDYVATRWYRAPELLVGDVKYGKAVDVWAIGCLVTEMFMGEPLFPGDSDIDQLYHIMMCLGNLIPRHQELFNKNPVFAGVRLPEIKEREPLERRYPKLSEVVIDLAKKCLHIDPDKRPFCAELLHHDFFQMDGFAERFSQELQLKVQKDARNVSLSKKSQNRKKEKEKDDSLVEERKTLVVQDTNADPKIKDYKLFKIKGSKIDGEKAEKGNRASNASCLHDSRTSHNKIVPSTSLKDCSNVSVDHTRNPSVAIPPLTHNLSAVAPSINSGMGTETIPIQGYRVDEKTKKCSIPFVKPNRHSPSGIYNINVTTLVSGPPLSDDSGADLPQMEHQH

[43] = target: RAC-alpha serine/threonine-protein kinase (Homo sapiens) (UniProt P31749); conditions: Compound concentration 1000.0 nM
[44] = target: Cyclin-dependent kinase 4 (Homo sapiens) (UniProt P11802); conditions: Compound concentration 1000.0 nM

CS(=O)(=O)c1cc(C2(NC(=O)c3cncc4c3cnn4-c3ccc(F)cc3)CC2)ccn1 [BI 639667]
inactive: residual activity [1] 100% | residual activity [2] 99% | residual activity [3] 99% | residual activity [4] 100% | residual activity [5] 100% | inhibition [6] 22.1% | residual activity [7] 100% | inhibition [8] 20.4% | inhibition [9] 3.75% | residual activity [10] 55% | residual activity [11] 100% | residual activity [12] 91% | residual activity [13] 94% | residual activity [14] 100% | residual activity [15] 100% | residual activity [16] 100% | residual activity [17] 79% | residual activity [18] 93% | residual activity [19] 100% | residual activity [20] 100% | residual activity [21] 68% | residual activity [22] 100% | residual activity [23] 100% | residual activity [24] 100% | residual activity [25] 100% | residual activity [26] 94% | residual activity [27] 98% | residual activity [28] 100% | residual activity [29] 100% | residual activity [30] 77% | residual activity [31] 97% | residual activity [32] 98% | residual activity [33] 100% | residual activity [34] 91% | inhibition [35] -6.8% | residual activity [36] 100% | residual activity [37] 100% | residual activity [38] 100% | residual activity [39] 100% | residual activity [40] 85% | residual activity [41] 91% | residual activity [42] 100% | residual activity [43] 100% | residual activity [44] 100%

CS(=O)(=O)NCC[C@H](NC(=O)c1cncc2c1cnn2-c1ccc(F)cc1)c1ccnc(S(C)(=O)=O)c1 [BI 9307]
inactive: residual activity [1] 83% | residual activity [2] 100% | residual activity [3] 100% | residual activity [4] 100% | residual activity [5] 100% | inhibition [6] -5.9% | residual activity [7] 100% | inhibition [8] 11.8% | inhibition [9] 10.4% | residual activity [10] 100% | residual activity [11] 100% | residual activity [12] 100% | residual activity [13] 100% | residual activity [14] 86% | residual activity [15] 100% | residual activity [16] 100% | residual activity [17] 100% | residual activity [18] 95% | residual activity [19] 100% | residual activity [20] 92% | residual activity [21] 69% | residual activity [22] 86% | residual activity [23] 100% | residual activity [24] 100% | residual activity [25] 100% | residual activity [26] 100% | residual activity [27] 100% | residual activity [28] 97% | residual activity [29] 100% | residual activity [30] 100% | residual activity [31] 100% | residual activity [32] 97% | residual activity [33] 100% | residual activity [34] 88% | inhibition [35] -2.08% | residual activity [36] 92% | residual activity [37] 77% | residual activity [38] 100% | residual activity [39] 100% | residual activity [40] 85% | residual activity [41] 80% | residual activity [42] 100% | residual activity [43] 100% | residual activity [44] 100%

Source: ChEMBL document CHEMBL4507278 (2021)
